According to patent publication US20030199523A1, “Heterocyclic calcium in channel blockers” (priority 2002, published 2003):

Tests used:
Type in all cases: cell-based
[1] = molecular target: T1, rat brain N-type calcium channel (α1B+α2δ+β1b) (Rattus norvegicus, UniProt Q02294); test: Whole cell patch clamp block of N-type calcium channels expressed in HEK 293 cells; conditions: step to +20 mV from holding potential −80 mV, 0.1 Hz, 5 mM barium external solution
T1 construct: expressed in transfected cells
Procedure: (§1) Antagonist activity was measured using whole cell patch recordings on human embryonic kidney cells either stably or transiently expressing rat α1B+α2b+β1b channels (N-type channels) with 5 mM barium as a charge carrier.
(§2) For transient expression, host cells, such as human embryonic kidney cells, HEK 293 (ATCC# CRL 1573) were grown in standard DMEM medium supplemented with 2 mM glutamine and 10% fetal bovine serum. HEK 293 cells were transfected by a standard calcium-phosphate-DNA coprecipitation method using the rat α1B+β1b+α2δ N-type calcium channel subunits in a vertebrate expression vector (for example, see Current Protocols in Molecular Biology).
(§3) After an incubation period of from 24 to 72 hrs the culture medium was removed and replaced with external recording solution (see below). Whole cell patch clamp experiments were performed using an Axopatch 200B amplifier (Axon Instruments, Burlingame, Calif.) linked to an IBM compatible personal computer equipped with pCLAMP software. Borosilicate glass patch pipettes (Sutter Instrument Co., Novato, Calif.) were polished (Microforge, Narishige, Japan) to a resistance of about 4 MΩ when filled with cesium methanesulfonate internal solution (composition in MM: 109 CsCH3SO4, 4 MgCl2, 9 EGTA, 9 HEPES, pH 7.2). Cells were bathed in 5 mM Ba^++ (in mM: 5 BaCl2, 1 MgCl2, 10 HEPES, 40 tetraethylammonium chloride, 10 glucose, 87.5 CsCl pH 7.2). Current data shown were elicited by a train of 100 ms test pulses at 0.066 Hz from −100 mV and/or −80 mV to various potentials (min. −20 mV, max. +30 mV). Drugs were perfused directly into the vicinity of the cells using a microperfusion system.
(§4) Normalized dose-response curves were fit (Sigmaplot 4.0, SPSS Inc., Chicago, Ill.) by the Hill equation to determine IC50 values. Steady-state inactivation curves were plotted as the normalized test pulse amplitude following 5 s inactivating prepulses at +10 mV increments. Inactivation curves were fit (Sigmaplot 4.0) with the Boltzman equation, Ipeak (normalized)=1/(1+exp((V−Vh)z/25.6)), where V and Vh are the conditioning and half inactivation potentials, respectively, and z is the slope factor.
(§5) The method of Example 1 was followed with slight modifications as will be apparent from the description below.
(§6) N-type calcium channel blocking activity was assayed in human embryonic kidney cells, HEK 293, stably transfected with the rat brain N-type calcium channel subunits (α1B+α2δ+β1b cDNA subunits). Alternatively, N-type calcium channels (α1B+α2δ+β1b cDNA subunits), L-type channels (α1C+α2δ+β1b cDNA subunits) and P/Q-type channels (α1A+α2δ+β1b cDNA subunits) were transiently expressed in HEK 293 cells. […]

[2] = test system: rat brain N-type calcium channel (α1B+α2δ+β1b); test: as above; conditions: N-type, L-type and P/Q-type channels compared
Procedure: as §1, §2, §3, §4, §5, §6

[3] = molecular target: T2, P/Q-type channels (α1A+α2δ+β1b) (Homo sapiens, UniProt O00555); test: Whole cell patch clamp block of P/Q-type calcium channels transiently expressed in HEK 293 cells; conditions: step to +20 mV from holding potential −80 mV, 0.1 Hz, 5 mM barium external solution
T2 construct: expressed in transfected cells; host or cells: HEK 293 (transient)
Procedure: as §5
(§7) N-type calcium channel blocking activity was assayed in human embryonic kidney cells, HEK 293, stably transfected with the rat brain N-type calcium channel subunits (α1B+α2δ+β1b cDNA subunits). Alternatively, N-type calcium channels (α1B+α2δ+β1b cDNA subunits), L-type channels (α1C+α2δ+β1b cDNA subunits) and P/Q-type channels (α1A+α2δ+β1b cDNA subunits) were transiently expressed in HEK 293 cells. Briefly, cells were cultured in Dulbecco's modified eagle medium (DMEM) supplemented with 10% fetal bovine serum, 200 U/ml penicillin and 0.2 mg/ml streptomycin at 37° C. with 5% CO2. At 85% confluency cells were split with 0.25% trypsin/1 mM EDTA and plated at 10% confluency on glass coverslips. At 12 hours the medium was replaced and the cells transiently transfected using a standard calcium phosphate protocol and the appropriate calcium channel cDNAs. Fresh DMEM was supplied and the cells transferred to 28° C./ 5% CO2. Cells were incubated for 1 to 2 days to whole cell recording.
(§8) Whole cell patch clamp experiments were performed using an Axopatch 200B amplifier (Axon Instruments, Burlingame, Calif.) linked to a personal computer equipped with pCLAMP software. […] Data were analyzed using Clampfit (Axon Instruments) and SigmaPlot 4.0 (Jandel Scientific).

[4] = molecular target: T3, L-type channels (α1C+α2δ+β1b) (Homo sapiens, UniProt Q13936); test: Whole cell patch clamp block of L-type calcium channels transiently expressed in HEK 293 cells; conditions: step to +20 mV from holding potential −80 mV, 0.1 Hz, 5 mM barium external solution
T3 construct: expressed in transfected cells; host or cells: HEK 293 (transient)
Procedure: as §5, §7, §8

T1 sequence (Q02294 whole entry): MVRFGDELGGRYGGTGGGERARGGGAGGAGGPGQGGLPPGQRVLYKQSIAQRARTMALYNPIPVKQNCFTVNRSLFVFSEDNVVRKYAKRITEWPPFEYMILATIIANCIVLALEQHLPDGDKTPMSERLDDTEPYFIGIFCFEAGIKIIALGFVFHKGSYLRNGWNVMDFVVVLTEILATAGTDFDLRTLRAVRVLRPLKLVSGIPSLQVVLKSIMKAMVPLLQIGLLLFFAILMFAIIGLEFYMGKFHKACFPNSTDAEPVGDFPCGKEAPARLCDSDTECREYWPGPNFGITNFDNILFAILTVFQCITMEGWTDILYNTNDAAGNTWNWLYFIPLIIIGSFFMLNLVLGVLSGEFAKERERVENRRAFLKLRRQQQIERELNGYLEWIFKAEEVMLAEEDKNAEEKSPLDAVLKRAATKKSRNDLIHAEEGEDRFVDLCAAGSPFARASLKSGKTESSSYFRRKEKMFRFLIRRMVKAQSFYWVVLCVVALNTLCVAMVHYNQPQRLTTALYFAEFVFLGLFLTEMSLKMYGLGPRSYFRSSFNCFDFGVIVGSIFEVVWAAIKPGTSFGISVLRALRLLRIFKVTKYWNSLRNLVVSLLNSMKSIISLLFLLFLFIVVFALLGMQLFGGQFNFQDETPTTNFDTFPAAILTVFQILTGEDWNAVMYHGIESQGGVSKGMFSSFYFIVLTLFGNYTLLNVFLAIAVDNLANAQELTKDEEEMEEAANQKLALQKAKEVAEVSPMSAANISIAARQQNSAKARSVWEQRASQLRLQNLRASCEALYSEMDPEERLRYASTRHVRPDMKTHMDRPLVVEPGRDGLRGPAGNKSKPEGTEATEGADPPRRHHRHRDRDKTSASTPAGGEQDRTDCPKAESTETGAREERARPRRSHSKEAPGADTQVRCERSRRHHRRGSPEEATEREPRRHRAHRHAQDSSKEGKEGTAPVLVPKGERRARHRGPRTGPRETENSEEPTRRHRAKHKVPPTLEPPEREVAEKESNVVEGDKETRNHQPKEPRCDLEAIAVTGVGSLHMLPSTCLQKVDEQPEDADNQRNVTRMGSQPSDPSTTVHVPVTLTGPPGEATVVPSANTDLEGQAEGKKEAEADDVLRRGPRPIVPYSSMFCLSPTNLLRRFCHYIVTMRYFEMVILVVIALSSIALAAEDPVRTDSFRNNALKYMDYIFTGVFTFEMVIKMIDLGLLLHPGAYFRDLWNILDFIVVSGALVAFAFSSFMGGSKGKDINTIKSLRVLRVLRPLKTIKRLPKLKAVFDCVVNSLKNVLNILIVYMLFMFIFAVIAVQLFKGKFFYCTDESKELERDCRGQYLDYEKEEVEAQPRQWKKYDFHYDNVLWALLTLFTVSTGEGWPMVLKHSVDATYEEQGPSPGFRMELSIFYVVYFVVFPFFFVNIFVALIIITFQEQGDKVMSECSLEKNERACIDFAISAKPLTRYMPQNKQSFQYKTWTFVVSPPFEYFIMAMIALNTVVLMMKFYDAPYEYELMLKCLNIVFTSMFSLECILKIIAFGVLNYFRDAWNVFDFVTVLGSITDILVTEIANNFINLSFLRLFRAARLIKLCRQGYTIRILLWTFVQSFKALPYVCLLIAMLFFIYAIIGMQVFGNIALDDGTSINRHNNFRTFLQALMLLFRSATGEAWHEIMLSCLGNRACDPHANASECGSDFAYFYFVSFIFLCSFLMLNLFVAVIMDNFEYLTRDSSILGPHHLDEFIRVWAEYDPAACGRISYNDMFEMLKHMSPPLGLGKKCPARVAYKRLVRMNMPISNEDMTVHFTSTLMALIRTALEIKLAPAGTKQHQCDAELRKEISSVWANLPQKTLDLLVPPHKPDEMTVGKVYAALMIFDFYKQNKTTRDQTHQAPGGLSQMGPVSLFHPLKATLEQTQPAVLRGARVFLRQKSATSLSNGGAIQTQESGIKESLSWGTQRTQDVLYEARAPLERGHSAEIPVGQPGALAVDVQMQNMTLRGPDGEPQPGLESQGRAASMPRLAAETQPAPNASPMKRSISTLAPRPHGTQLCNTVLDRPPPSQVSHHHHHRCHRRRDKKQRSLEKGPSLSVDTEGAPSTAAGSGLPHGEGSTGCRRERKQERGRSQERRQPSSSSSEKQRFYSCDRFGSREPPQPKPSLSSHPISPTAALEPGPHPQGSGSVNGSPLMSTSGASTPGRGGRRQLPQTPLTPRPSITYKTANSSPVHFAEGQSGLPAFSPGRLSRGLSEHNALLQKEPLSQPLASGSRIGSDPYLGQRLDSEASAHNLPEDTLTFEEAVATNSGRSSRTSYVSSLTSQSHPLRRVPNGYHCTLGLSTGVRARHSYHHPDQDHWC
T2 sequence (O00555 whole entry): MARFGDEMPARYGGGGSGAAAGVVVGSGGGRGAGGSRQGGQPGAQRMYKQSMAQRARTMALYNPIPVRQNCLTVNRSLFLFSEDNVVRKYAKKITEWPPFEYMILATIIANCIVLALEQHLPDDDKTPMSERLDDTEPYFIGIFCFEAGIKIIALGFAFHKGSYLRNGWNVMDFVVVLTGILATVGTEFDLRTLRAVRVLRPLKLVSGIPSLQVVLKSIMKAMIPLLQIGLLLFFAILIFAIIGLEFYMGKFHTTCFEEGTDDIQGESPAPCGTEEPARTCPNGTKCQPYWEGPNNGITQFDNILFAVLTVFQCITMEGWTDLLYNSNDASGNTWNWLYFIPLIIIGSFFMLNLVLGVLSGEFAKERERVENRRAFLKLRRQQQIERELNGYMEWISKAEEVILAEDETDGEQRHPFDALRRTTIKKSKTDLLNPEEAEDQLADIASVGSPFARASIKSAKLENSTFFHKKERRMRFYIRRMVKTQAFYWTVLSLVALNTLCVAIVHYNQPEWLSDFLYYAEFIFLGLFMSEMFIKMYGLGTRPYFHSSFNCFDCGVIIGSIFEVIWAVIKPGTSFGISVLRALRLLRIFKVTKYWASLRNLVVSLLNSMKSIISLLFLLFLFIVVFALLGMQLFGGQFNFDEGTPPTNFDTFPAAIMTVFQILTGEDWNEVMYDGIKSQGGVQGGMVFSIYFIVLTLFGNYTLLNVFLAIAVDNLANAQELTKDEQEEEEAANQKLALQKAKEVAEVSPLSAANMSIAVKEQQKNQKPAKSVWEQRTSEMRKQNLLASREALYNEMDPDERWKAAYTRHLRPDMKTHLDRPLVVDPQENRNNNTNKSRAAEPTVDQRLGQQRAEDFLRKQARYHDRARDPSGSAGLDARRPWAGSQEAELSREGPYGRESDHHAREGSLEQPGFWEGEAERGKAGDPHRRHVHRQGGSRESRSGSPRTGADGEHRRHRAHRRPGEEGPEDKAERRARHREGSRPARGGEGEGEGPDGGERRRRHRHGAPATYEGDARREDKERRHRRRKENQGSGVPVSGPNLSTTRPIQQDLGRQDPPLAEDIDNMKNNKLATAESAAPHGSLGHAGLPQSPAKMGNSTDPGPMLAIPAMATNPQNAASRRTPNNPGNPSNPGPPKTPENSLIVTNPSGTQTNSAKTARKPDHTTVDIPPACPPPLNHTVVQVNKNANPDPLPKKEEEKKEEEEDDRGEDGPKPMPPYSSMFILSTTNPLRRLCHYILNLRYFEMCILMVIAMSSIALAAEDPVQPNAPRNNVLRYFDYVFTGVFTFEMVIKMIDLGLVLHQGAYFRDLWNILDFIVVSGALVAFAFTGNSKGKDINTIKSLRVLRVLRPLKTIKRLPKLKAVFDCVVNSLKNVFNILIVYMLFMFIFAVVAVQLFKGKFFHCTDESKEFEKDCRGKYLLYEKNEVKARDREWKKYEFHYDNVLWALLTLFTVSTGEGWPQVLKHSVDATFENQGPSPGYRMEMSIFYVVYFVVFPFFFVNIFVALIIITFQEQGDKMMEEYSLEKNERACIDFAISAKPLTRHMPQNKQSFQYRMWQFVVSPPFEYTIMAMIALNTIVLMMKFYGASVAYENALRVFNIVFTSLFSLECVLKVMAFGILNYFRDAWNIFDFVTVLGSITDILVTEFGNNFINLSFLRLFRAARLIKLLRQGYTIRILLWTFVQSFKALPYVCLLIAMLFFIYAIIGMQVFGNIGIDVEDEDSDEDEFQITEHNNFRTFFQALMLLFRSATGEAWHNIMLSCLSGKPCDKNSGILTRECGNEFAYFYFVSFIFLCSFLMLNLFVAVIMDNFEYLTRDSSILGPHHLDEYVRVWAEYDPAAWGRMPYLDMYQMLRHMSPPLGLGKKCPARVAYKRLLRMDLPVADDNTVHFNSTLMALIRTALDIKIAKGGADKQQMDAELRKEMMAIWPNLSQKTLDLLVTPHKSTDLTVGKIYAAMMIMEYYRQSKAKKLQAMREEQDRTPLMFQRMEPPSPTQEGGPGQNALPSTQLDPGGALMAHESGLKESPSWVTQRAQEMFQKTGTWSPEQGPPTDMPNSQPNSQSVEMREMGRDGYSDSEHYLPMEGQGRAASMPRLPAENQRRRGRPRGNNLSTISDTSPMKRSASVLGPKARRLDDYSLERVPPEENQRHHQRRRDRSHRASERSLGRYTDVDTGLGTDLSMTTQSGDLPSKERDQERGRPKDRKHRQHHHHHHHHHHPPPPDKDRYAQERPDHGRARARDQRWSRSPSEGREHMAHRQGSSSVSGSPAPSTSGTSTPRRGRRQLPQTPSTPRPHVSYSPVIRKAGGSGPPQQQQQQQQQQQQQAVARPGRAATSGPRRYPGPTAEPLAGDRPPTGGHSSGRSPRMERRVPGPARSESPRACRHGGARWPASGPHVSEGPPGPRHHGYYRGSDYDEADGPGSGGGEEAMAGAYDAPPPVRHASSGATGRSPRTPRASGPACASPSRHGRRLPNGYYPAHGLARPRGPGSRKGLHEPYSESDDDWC

SMILES	IC50 [1]	selectivity for N-type channels versus L-type and P/Q-type (in words) [2]	IC50 [3]	IC50 [4]
O=C(CCOc1ccc(Cl)cc1Cl)Nc1nnc(C(F)(F)F)s1 [NT044, N-2-(5-trifluoromethyl-1,3,4-thiadiazolyl)-3-(2,4-dichlorophenoxy) propionyl amide]	0.14 µM	somewhat selective for N-type channels	6.4 µM	2.06 µM
O=C(COC(c1ccc(Cl)cc1)c1ccc(Cl)cc1)Nc1ncc([N+](=O)[O-])s1 [NT051]	0.13 µM	somewhat selective for N-type channels	6.8 µM	1.91 µM
